Results: article PMC4873967, “ISPD produces CDP-ribitol used by FKTN and FKRP to transfer ribitol phosphate onto α-dystroglycan” (Nature Communications, 2016)

Assays:
Assay type in all cases: biochemical
[1] = biological target: T1, FKRP (fukutin-related protein) (Mus musculus, UniProt Q8CG64); experiment: transfer of radiolabel to alpha-dystroglycan (scintillation counting; SDS-PAGE phosphorimaging); conditions: labelled compound; acceptor rabbit alpha-dystroglycan fragments; 2 mM MnCl2, pH 6.5, 30 °C, 16 h
T1 construct: full ORF from mouse thymus cDNA, C-terminal SFB tag (S-tag, two FLAG, SBP), HEK293 lysate, streptavidin beads
T1 sequence (Q8CG64 1-494): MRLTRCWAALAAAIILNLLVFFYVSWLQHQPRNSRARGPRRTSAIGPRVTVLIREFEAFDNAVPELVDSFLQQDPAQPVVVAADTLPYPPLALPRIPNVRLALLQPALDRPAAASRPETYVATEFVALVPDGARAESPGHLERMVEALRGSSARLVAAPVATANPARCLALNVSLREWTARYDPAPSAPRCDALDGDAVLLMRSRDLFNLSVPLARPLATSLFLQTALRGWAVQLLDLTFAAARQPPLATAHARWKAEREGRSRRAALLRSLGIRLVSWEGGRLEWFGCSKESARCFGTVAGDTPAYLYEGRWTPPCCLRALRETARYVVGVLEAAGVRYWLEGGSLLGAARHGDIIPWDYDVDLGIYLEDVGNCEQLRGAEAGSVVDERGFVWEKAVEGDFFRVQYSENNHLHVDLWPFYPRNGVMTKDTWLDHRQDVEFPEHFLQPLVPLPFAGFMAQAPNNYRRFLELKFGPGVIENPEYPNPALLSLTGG

FKTN (fukutin) = biological target: T2, FKTN (fukutin) (Mus musculus, UniProt Q8R507); experiment: as above; conditions: labelled compound; acceptor rabbit alpha-dystroglycan fragments; 2 mM MnCl2, pH 6.5, 30 °C, 16 h
T2 construct: full ORF from mouse brown adipose tissue cDNA, C-terminal SFB tag (S-tag, two FLAG, SBP), HEK293 lysate, streptavidin beads
T2 sequence (Q8R507 1-461): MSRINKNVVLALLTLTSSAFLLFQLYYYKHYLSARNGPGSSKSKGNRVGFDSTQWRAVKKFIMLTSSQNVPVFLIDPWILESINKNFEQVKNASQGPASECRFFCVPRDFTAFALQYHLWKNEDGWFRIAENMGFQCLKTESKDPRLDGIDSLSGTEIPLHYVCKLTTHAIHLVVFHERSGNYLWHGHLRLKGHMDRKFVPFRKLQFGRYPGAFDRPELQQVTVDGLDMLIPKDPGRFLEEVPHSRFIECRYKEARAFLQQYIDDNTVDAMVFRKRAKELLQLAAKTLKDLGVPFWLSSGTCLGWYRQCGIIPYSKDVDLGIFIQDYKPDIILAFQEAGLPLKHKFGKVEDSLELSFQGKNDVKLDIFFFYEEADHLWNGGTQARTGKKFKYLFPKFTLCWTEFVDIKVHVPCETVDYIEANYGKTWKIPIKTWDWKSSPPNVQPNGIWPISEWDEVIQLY

ISPD (mouse Ispd) = biological target: T3, ISPD (mouse Ispd) (Mus musculus, UniProt Q5RJG7); experiment: HPLC (strong anion exchange) of CDP-ribitol formed; conditions: 1 mM CTP
T3 construct: gene Crppa
T3 sequence (Q5RJG7 1-447): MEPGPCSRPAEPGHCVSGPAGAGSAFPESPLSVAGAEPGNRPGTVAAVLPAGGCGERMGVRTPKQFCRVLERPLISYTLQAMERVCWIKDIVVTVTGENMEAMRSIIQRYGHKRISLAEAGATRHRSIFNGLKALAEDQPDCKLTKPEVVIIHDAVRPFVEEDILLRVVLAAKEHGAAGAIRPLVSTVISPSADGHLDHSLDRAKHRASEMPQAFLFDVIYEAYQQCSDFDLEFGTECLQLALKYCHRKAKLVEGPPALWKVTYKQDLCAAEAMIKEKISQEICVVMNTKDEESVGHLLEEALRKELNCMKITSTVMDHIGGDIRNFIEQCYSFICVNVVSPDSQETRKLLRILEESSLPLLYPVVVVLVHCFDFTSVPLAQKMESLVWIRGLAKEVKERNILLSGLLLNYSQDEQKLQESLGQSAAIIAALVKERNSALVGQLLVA

Nc1ccn([C@@H]2O[C@H](COP(=O)(O)OP(=O)(O)OC[C@@H](O)[C@@H](O)[C@@H](O)CO)[C@@H](O)[C@H]2O)c(=O)n1 [CDP-ribitol]
transfer of radiolabel to alpha-dystroglycan (scintillation counting); SDS-PAGE p [1]: both FKTN and FKRP were able to transfer ribitol phosphate from CDP-ribitol onto α-dystroglycan
transfer of radiolabel to alpha-dystroglycan (scintillation counting); SDS-PAGE p (FKTN (fukutin)): both FKTN and FKRP were able to transfer ribitol phosphate from CDP-ribitol onto α-dystroglycan

Nc1ccn([C@@H]2O[C@H](COP(=O)(O)OP(=O)(O)OP(=O)(O)O)[C@@H](O)[C@H]2O)c(=O)n1 [CTP]
HPLC (strong anion exchange) of CDP-ribitol formed (ISPD (mouse Ispd); D-ribitol-5-P as co-substrate, 2 mM MgCl2, pH 7.8, 37 °C): Activity of ISPD on CTP and D-ribitol-5-P

O=P(O)(O)OC[C@@H](O)[C@@H](O)[C@@H](O)CO [D-ribitol-5-P]
HPLC (strong anion exchange) of CDP-ribitol formed (ISPD (mouse Ispd); 2 mM MgCl2, 20 mM KCl, 2 mM DTT, pH 7.8, 37 °C): we clearly observed a CDP-ribitol pyrophosphorylase activity (Fig. 1b)
